The values below come from patent US9247741B2, “Use of macrocyclic picolinamides as fungicides” (DOW AGROSCIENCES LLC, priority 2013, dated 2016).

Series [1] concerns Mycosphaerella graminicola; Anamorph: Septoria tritici. The series is described as follows: Leaf blotch of wheat (SEPTTR) disease control on wheat seedlings. The class given is in vivo. To be noted: Zymoseptoria tritici; for pest or weed control at 121.5 g/ha: 121.5 g/H (low volume track spray). The protocol: Evaluation of Fungicidal Activity: Leaf Blotch of Wheat (Mycosphaerella graminicola; Anamorph: Septoria tritici; Bayer Code […]) Technical grades of materials were dissolved in acetone, which were then mixed with nine volumes of water containing 110 ppm Triton X-100. The fungicide solutions were applied onto wheat seedlings using an automated booth sprayer to run-off. All sprayed plants were allowed to air dry prior to further handling. All fungicides were evaluated using the aforementioned method for their activity vs. all target diseases. Wheat leaf blotch and brown rust activity were also evaluated using track spray applications, in which case the fungicides were formulated as EC formulations, containing 0.1% Trycol 5941 in the spray solutions. Wheat plants (variety Yuma) were grown from seed in a greenhouse in 50% mineral soil/50% soil-less Metro mix until the first leaf was fully emerged, with 7-10 seedlings per pot. These plants were inoculated with an aqueous spore suspension of Septoria tritici either prior to or after fungicide treatments. After inoculation the plants were kept in 100% relative humidity (one day in a dark dew chamber followed by two to three days in a lighted dew chamber at 20° C.) to permit spores to germinate and infect the leaf. The plants were then transferred to a greenhouse set at 20° C. for disease to develop. When disease symptoms were fully expressed on the l^st leaves of untreated plants, infection levels were assessed on a scale of 0 to 100 percent disease severity. Percent disease control was calculated using the ratio of disease severity on treated plants relative to untreated plants.

Another series relates to Puccinia triticina. Briefly: Wheat brown rust (PUCCRT) disease control on wheat seedlings. The class given is in vivo. To be noted: for pest or weed control at 100 ppm: 100 ppm (high volume); for pest or weed control at 121.5 g/ha: 121.5 g/H (low volume track spray). The method, then: Technical grades of materials were dissolved in acetone, which were then mixed with nine volumes of water containing 110 ppm Triton X-100. The fungicide solutions were applied onto wheat seedlings using an automated booth sprayer to run-off. All sprayed plants were allowed to air dry prior to further handling. All fungicides were evaluated using the aforementioned method for their activity vs. all target diseases. Wheat leaf blotch and brown rust activity were also evaluated using track spray applications, in which case the fungicides were formulated as EC formulations, containing 0.1% Trycol 5941 in the spray solutions. Wheat plants (variety Yuma) were grown from seed in a greenhouse in 50% mineral soil/50% soil-less Metro mix until the first leaf was fully emerged, with 7-10 seedlings per pot. These plants were inoculated with an aqueous spore suspension of Septoria tritici either prior to or after fungicide treatments. After inoculation the plants were kept in 100% relative humidity (one day in a dark dew chamber followed by two to three days in a lighted dew chamber at 20° C.) to permit spores to germinate and infect the leaf. The plants were then transferred to a greenhouse set at 20° C. for disease to develop. When disease symptoms were fully expressed on the l^st leaves of untreated plants, infection levels were assessed on a scale of 0 to 100 percent disease severity. Percent disease control was calculated using the ratio of disease severity on treated plants relative to untreated plants. Evaluation of Fungicidal Activity: Wheat Brown Rust (Puccinia triticina; Synonym: Puccinia recondite f sp. tritici; Bayer code PUCCRT) Wheat plants (variety Yuma) were grown from seed in a greenhouse in 50% mineral soil/50% soil-less Metro mix until the first leaf was fully emerged, with 7-10 seedlings per pot. These plants were inoculated with an aqueous spore suspension of Puccinia triticina either prior to or after fungicide treatments. After inoculation the plants were kept in a dark dew room at 22° C. with 100% relative humidity overnight to permit spores to germinate and infect the leaf. The plants were then transferred to a greenhouse set at 24° C. for disease to develop. Fungicide formulation, application and disease assessment followed the procedures as described in the Example A.

The mark [2] stands for this setting: 24 h, 1 Day Protectant, 100 ppm (high volume), wheat, read-out: SEPTTR 1DP disease control rating.
Setting [3] is: 72 h, 3 Day Curative, 100 ppm (high volume), wheat, read-out: SEPTTR 3DC disease control rating.
[4] abbreviates: 24 h, 1 Day Protectant, read-out: PUCCRT 1DP disease control rating.
Setting [5] is: 72 h, 3 Day Curative, read-out: PUCCRT 3DC disease control rating.
Setting [6] is: 24 h, 1 Day Protectant, wheat, read-out: SEPTTR 1DP disease control rating.
Setting [7] is: 72 h, 3 Day Curative, wheat, read-out: SEPTTR 3DC disease control rating.

Where two headings read alike, the source gives them in different places.

Turning to `CCCC[C@H]1[C@H](C)OC(=O)[C@@H](N)CCC[C@@H]1OCC1CC1.Cl`, the melting point lay in the range of 223 to 224 °C.
`CCCC[C@H]1[C@H](C)OC(=O)[C@@H](N)CCC[C@@H]1OCCCC(F)(F)F.Cl` gave a melting point of 196 to 198 °C.
`COc1ccnc(C(=O)N[C@H]2CCC[C@H](Oc3ccccc3)[C@@H](CCC(C)C)[C@H](C)OC2=O)c1O` [Compound 8] came in with a melting point of 55 to 60 °C. Moreover, the pest or weed control at 100 ppm in series [1] (setting [2]) was above 70%. Moreover, the pest or weed control at 100 ppm in series [1] (setting [3]) is above 70%. Also, the pest or weed control at 100 ppm in the series on Puccinia triticina (setting [4]) is above 70%. The pest or weed control at 100 ppm in the series on Puccinia triticina (setting [5]) is above 70%.
Compound `COc1ccnc(C(=O)N[C@H]2CCC[C@H](OCc3ccccc3)[C@@H](CCC(C)C)[C@H](C)OC2=O)c1OC(C)=O` [Compound 17] gave a melting point of 58 to 62 °C. The pest or weed control at 121.5 g/ha in series [1] (setting [6]) is above 70%. Also, the pest or weed control at 121.5 g/ha in series [1] (setting [7]) is above 70%. Besides, the pest or weed control at 121.5 g/ha in the series with Puccinia triticina (setting [4]) is above 70%. The pest or weed control at 121.5 g/ha in the series on Puccinia triticina (setting [5]) is above 70%.
With `CCCO[C@H]1CCC[C@H](NC(=O)c2nccc(OC)c2O)C(=O)O[C@@H](C)[C@@H]1CCC(C)C` [Compound 31, 3-hydroxy-N-((3S,7S,8S,9S)-8-isopentyl-9-methyl-2-oxo-7-propoxyoxonan-3-yl)-4-methoxypicolinamide], the melting point was in the range of 45 to 49 °C. In addition, the pest or weed control at 100 ppm in series [1] (24 h, read-out: SEPTTR 1DP disease control rating) is below 70%. For the same compound, the pest or weed control at 100 ppm in series [1] (72 h, read-out: SEPTTR 3DC disease control rating) was below 70%. In the series on Puccinia triticina (setting [4]), the pest or weed control at 100 ppm is above 70%. The pest or weed control at 100 ppm in the series on Puccinia triticina (setting [5]) was below 70%.
Compound `CCCO[C@H]1CCC[C@H](NC(=O)c2nccc(OC)c2O)C(=O)O[C@@H](C)[C@@H]1Cc1ccccc1` [Compound 49] yielded a melting point of 59 to 64 °C. The pest or weed control at 100 ppm in series [1] (setting [2]) is above 70%. Moreover, in series [1] (setting [3]), the pest or weed control at 100 ppm is above 70%. In addition, in the series with Puccinia triticina (setting [4]), the pest or weed control at 100 ppm is above 70%. Also, the pest or weed control at 100 ppm in the series on Puccinia triticina (setting [5]) was above 70%.
As for `CC(C)CC[C@H]1[C@H](C)OC(=O)[C@@H](NC(=O)OC(C)(C)C)CCC[C@@H]1OCc1ccccc1` [Compound 51], the melting point lay within 97 to 100 °C.
In turn, `COc1ccnc(C(=O)N[C@H]2CCC[C@H](Oc3ccc(C)cc3)[C@@H](Cc3ccccc3)[C@H](C)OC2=O)c1O` [Compound 60] yielded a melting point of 68 to 71 °C. Moreover, the pest or weed control at 100 ppm in series [1] (setting [2]) was above 70%. Besides, the pest or weed control at 100 ppm in series [1] (setting [3]) was above 70%. In the series with Puccinia triticina (setting [4]), the pest or weed control at 100 ppm is above 70%. Also, the pest or weed control at 100 ppm in the series on Puccinia triticina (setting [5]) is above 70%.
On to `CCCC[C@H]1[C@H](C)OC(=O)[C@@H](NC(=O)c2nccc(OC)c2OC(C)=O)CCC[C@@H]1OCc1ccccc1` [Compound 63], for which the pest or weed control at 121.5 g/ha (in series [1] (setting [6]); in series [1] (setting [7]); in the series with Puccinia triticina (setting [4]); in the series on Puccinia triticina (setting [5])) was above 70% throughout.
Turning to `CCCC[C@H]1[C@H](C)OC(=O)[C@@H](NC(=O)c2nccc(OC)c2O)CCC[C@@H]1OC(=O)C(C)C` [Compound 64], the pest or weed control at 100 ppm was above 70% in series [1] (setting [2]), above 70% in series [1] (setting [3]), above 70% in the series on Puccinia triticina (setting [4]) and below 70% with Puccinia triticina (setting [5]).
Consider `COc1ccnc(C(=O)N[C@H]2CCC[C@H](OCC(C)C)[C@@H](Cc3ccccc3)[C@H](C)OC2=O)c1OCOC(C)=O` [Compound 65], for which the pest or weed control at 121.5 g/ha (in series [1] (setting [6]); in series [1] (setting [7]); in the series on Puccinia triticina (setting [4]); in the series on Puccinia triticina (setting [5])) was above 70% throughout.
Consider `COc1ccnc(C(=O)N[C@H]2CCC[C@H](OCC3CC3)[C@@H](Cc3ccccc3)[C@H](C)OC2=O)c1O` [Compound 67], for which the pest or weed control at 100 ppm (in series [1] (setting [2]); in series [1] (setting [3]); in the series on Puccinia triticina (setting [4]); in the series on Puccinia triticina (setting [5])) was above 70% in each case.
Turning to `CCCC[C@H]1[C@H](C)OC(=O)[C@@H](NC(=O)c2nccc(OC)c2OCOC(=O)COCC)CCC[C@@H]1OC(=O)C(C)C` [Compound 71, (2S,3S,4S,8S)-3-butyl-8-(3-((2-ethoxyacetoxyl)methoxy)-4-methoxypicolinamido)-2-methyl-9-oxooxonan-4-yl isobutyrate], the pest or weed control at 121.5 g/ha (in series [1] (setting [6]); in series [1] (setting [7]); in the series with Puccinia triticina (setting [4]); in the series with Puccinia triticina (setting [5])) was above 70% in each case.
As to `COc1ccnc(C(=O)N[C@H]2CCC[C@H](OCC(C)C)[C@@H](Cc3ccccc3)[C@H](C)OC2=O)c1OC(C)=O` [Compound 72], the pest or weed control at 121.5 g/ha (in series [1] (setting [6]); in series [1] (setting [7]); in the series with Puccinia triticina (setting [4]); with Puccinia triticina (setting [5])) was above 70% each time.
As to `COc1ccnc(C(=O)N[C@H]2CCC[C@H](OCC3CC3)[C@@H](Cc3ccccc3)[C@H](C)OC2=O)c1OC(C)=O` [Compound 76], the pest or weed control at 100 ppm (in series [1] (setting [2]); in series [1] (setting [3]); in the series on Puccinia triticina (setting [4]); in the series with Puccinia triticina (setting [5])) was above 70% throughout.

A word on the melting point: it is the temperature of the solid-liquid transition.
